Test results from PMC10151334, “Anti-proliferative potential and oxidative reactivity of thermo-oxidative degradation products of stigmasterol and stigmasteryl esters for human intestinal cells” (Scientific Reports, 2023).

Columns and labels:
CCD 841 CoN cells [1] = assay: DNA synthesis, BrdU incorporation (Cell Proliferation ELISA); assay type: cell-based, human; conditions: 48 h
Method: CCD 841 CoN cells were grown in black 96-well plates at an initial cell density of 2 × 10^4 cells/cm^2 for 24 h under standard culture conditions. The cells were treated with ST (2.5, 5, 10, 20, and 40 μg/mL) and its esters ST-OA and ST-LA (10, 20, and 40 μg/mL) for 48 h. DNA synthesis was measured by incorporating thymidine analog 5-bromo-2′-deoxyuridine (BrdU) into newly synthesized DNA using the Cell Proliferation ELISA kit according to the protocol recommended by the manufacturer (Roche Diagnostics GmbH, Mannheim, Germany). Briefly, BrdU was added to the treated cells 24 h before the end of the exposure to the ST, ST-OA, and ST-LA (final BrdU concentration of 10 μM). After treatment, BrdU-labeled DNA was denatured (30 min, 20 °C). Then, BrdU was bonded with a peroxidase-conjugated anti-BrdU antibody (90 min, 20 °C) and reacted with the peroxidase substrate. The absorbance measurement was done with a stop solution (1 M H2SO4) at 450 nm with reference wavelength 690 nm using a Tecan M200 Infinite microplate reader.

[2] = design: method as in PMID 31883991; conditions: thermo-oxidative treatment; cited from earlier work
CCD 841 CoN cells [3] = tested on: CCD 841 CoN cells; design: method as in PMID 31883991; conditions: colon mucosa CCD 841 CoN cells, MTT test; cited from earlier work
CCD 841 CoN cells [4] = assay: MultiTox-Fluor Multiplex Cytotoxicity Assay (live and dead cell fluorescence); assay type: cell-based
Method: The normal human diploid CCD 841 CoN cell line (ATCC® CRL-1790™) isolated from colon mucosa was obtained from American Type Culture Collection (ATCC, Manassas, VA, USA). Cells were cultured in Dulbecco’s Modified Eagle’s Medium (DMEM, Sigma-Aldrich) supplemented with fetal bovine serum (FBS; Gibco BRL, Grand Island, NY, USA) to a final concentration of 10% and maintained at 37 °C in a humidified atmosphere with 5% CO2.
In the cytotoxicity experiments, CCD 841 CoN cells were seeded in 96-well plates at an initial density of 2.0 × 10^4 cells/cm^2 and incubated for 24 h. […] Control culture contained the vehicle at the amount corresponding to the sample analyzed.
The Multitox-Fluor Multiplex Cytotoxicity Assay (Promega GmbH, Mannheim, Germany) was applied to determine the relative number of live and dead cells in the CCD 841 CoN cell cultures treated with the analyzed compounds. The assay determined live- and dead-cell protease activities using two fluorogenic peptide substrates, cell-permeant (glycyl-phenylalanyl-amino fluorocoumarin; GF-AFC) and cell-impermeant (bis-alanyl-alanyl-phenylalanyl-rhodamine 110; bis-AAF-R110). After treatment, the cells were incubated with GF-AFC and bis-AAF-R110 substrates for 60 min at 37 °C. The live- and dead-cell proteases produced AFC and R110 products, measured using a Tecan M200 Infinite microplate reader (Tecan Group Ltd., Männedorf, Switzerland) at different excitation (400 nm and 485 nm) and emission (505 nm and 520 nm) spectra. The assay was conducted according to the manufacturer’s instructions.

S. typhimurium TA102 = assay: Bacterial reverse mutation assay (Ames test), strain TA102; conditions: 40 μg/mL, regardless of metabolic activation (+/− S9)
Method: Potential mutagenicity or pro-mutagenicity of non-heated and heated ST, ST-LA, and ST-OA was determined using the bacterial reverse mutation assay (Ames test) with Salmonella enterica subsp. enterica ser. typhimurium tester strains TA98, TA100, and TA102, which were obtained from the Polish Collection of Microorganisms of the Institute of Immunology and Experimental Therapy of the Polish Academy of Sciences in Wroclaw.
Mutagenicity experiments were performed in the liquid pre-incubation assay, without and with metabolic activation by supplying Aroclor 1254-induced rat liver microsomal fraction (S9, Sigma-Aldrich) with NADP and cofactors for NADPH-supported oxidation, according to the procedure described by Mortelmans and Zeiger[39]. Briefly, reaction mixtures, consisting of 12-h bacterial culture, non-heated and heated compound (ST, ST-LA, ST-OA) at a concentration of 40 μg, 0.2 M phosphate buffer (pH 7.4), and alternatively S9 activating mixture, were pre-incubated at 37 °C for 20 min. […] The mutagen, 2-aminoanthracene (5 μg) (Sigma-Aldrich), was a positive control in pro-mutagenicity experiments. After pre-incubation, the reaction mixtures were added to the top agar supplemented with traces of histidine and biotin and poured onto the plates covered with minimum glucose agar. The cultures were incubated for 48 h at 37 °C, and the number of revertants (His+) colonies was counted manually.
Compounds with MI ≥ 2 can be recognized as potentially mutagenic.

Structure (SMILES): CC[C@H](/C=C/[C@@H](C)[C@H]1CC[C@H]2[C@@H]3CC=C4C[C@@H](O)CC[C@]4(C)[C@H]3CC[C@]12C)C(C)C [ST, Stigmasterol]
- decrease in DNA synthesis (BrdU incorporation) (CCD 841 CoN cells [1]; 5 μg/mL, P = 0.028): 10%
- decrease in DNA synthesis (BrdU incorporation) (CCD 841 CoN cells [1]; 40 μg/mL): 61%
- first dose that significantly inhibited DNA synthesis (CCD 841 CoN cells [1]): 5 µg/mL
- degradation of ST molecule due to the heating process [2]: approximately 80%
- half-maximal effective concentration (EC50), 50% decrease in cell viability (CCD 841 CoN cells [3]): 2.95 µg/mL
- decrease in the viable cell number (CCD 841 CoN cells [4]; 1 μg/mL, first cytotoxic effects): 10%
- reduction in number of viable cells / relative cell viability (CCD 841 CoN cells [4]; 40 μg/mL, 48-h treatment): approximately 80%
- concentration at which first cytotoxic effects were observed (CCD 841 CoN cells [4]; 48-h treatment): 1000 ng/mL
- effect on TA102 revertants (S. typhimurium TA102): did not affect the number of TA102 revertants
